ChEMBL document CHEMBL1121459, “Relationship of octanol/water partition coefficient and molecular weight to rat brain capillary permeability” (J Med Chem, 1980)

Experiments:
physchem = details: octanol/water
Description: Partition coefficient (logP)

[1] = octanol/water
Description: Partition coefficient (logP)

## COc1cccc2c1C(=O)c1c(O)c3c(c(O)c1C2=O)C[C@@](O)(C(=O)CO)C[C@@H]3O[C@H]1C[C@H](N)[C@H](O)[C@H](C)O1 [DOXORUBICIN]
physchem
  logP: -0.1

## BLEOMYCIN
[1]
  logP: -3.3

## CC[C@]1(O)C[C@H]2CN(CCc3c([nH]c4ccccc34)[C@@](C(=O)OC)(c3cc4c(cc3OC)N(C=O)[C@H]3[C@@](O)(C(=O)OC)[C@H](OC(C)=O)[C@]5(CC)C=CCN6CC[C@]43[C@@H]65)C2)C1 [VINCRISTINE]
physchem
  logP: 2.8

## NC(N)=O [UREA]
[1]
  logP: -2.8

## O=NN(CCCl)C(=O)NC1CCC(=O)NC1=O (stereo not given)
physchem
  logP: 0.37

## Cc1cc(N2C(N)=NC(N)=NC2(C)C)ccc1OCc1cccc(C(N)=O)c1
physchem
  logP: -2.46

## O=c1[nH]cc(F)c(=O)[nH]1 [FLUOROURACIL]
physchem
  logP: -0.95

## O=C1NC2(CCCCC2)C(=O)N1CCN(CCCl)CCCl [SPIROMUSTINE]
physchem
  logP: 2.47

## OC[C@@H](O)[C@@H](O)[C@H](O)[C@H](O)CO [MANNITOL]
physchem
  logP: -3.1

## COc1cc([C@@H]2c3cc4c(cc3[C@@H](O[C@@H]3O[C@@H]5CO[C@@H](c6cccs6)O[C@H]5[C@H](O)[C@H]3O)[C@H]3COC(=O)[C@H]23)OCO4)cc(OC)c1O [TENIPOSIDE]
[1]
  logP: 2.8

## O=NN(CCCl)C(=O)NC1CCCCC1 [LOMUSTINE]
physchem
  logP: 2.83

## Cc1ncc([N+](=O)[O-])n1CCO [METRONIDAZOLE]
physchem
  logP: -0.16

## O=NN(CCCl)C(=O)NCCCl [CARMUSTINE]
physchem
  logP: 1.54

## OCC(O)CO [GLYCERIN]
physchem
  logP: -1.75

## O=c1[nH]c(=O)n(C2CCCO2)cc1F (stereo not given) [TEGAFUR]
physchem
  logP: -0.48

## OC(CBr)C(O)C(O)C(O)CBr (stereo not given)
physchem
  logP: -0.29

## CN1CC(=O)NC1=N [CREATININE]
[1]
  logP: -1.77

## CCc1nc(N)nc(N)c1-c1ccc(Cl)c(Cl)c1 [ETOPRINE]
physchem
  logP: 3.19

## O[C@@H]1CO[C@H]2[C@@H]1OC[C@H]2O
physchem
  logP: -1.29

## O=C1OC(C(O)CO)C(O)=C1O (stereo not given)
[1]
  logP: -4.04
